Each structure is given as a SMILES string. Where “and” joins values, the source holds several entries; their conditions need not be identical. Equal values may be shown once. Toxic doses and inconclusive results are not listed.

The subject of this assay is L1210 leukemia ip in BDF1 mice, survival T/C. The experiment in a line: NCI In Vivo Anticancer Drug Screen. Data for tumor model L1210 Leukemia (intraperitoneal) in B6D2F1 (BDF1) mice. As to conditions: endpoint: mean survival time, higher = longer survival. In outline: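 Tumor cells were implanted, animals were treated, and survival was followed. The result divides the treated measurement by the vehicle-control measurement.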

[1] abbreviates: dose: 400.0 mg/kg/injection, schedule: Q01DX009 (ip), vehicle: saline.
Where [2] appears, read: dose: 100.0 mg/kg/injection, schedule: Q01DX001 (ip), vehicle: saline.
Where [3] appears, read: dose: 100.0 mg/kg/injection, schedule: Q04DX003 (ip), vehicle: saline.
[4] abbreviates: dose: 200.0 mg/kg/injection, schedule: Q01DX001 (ip), vehicle: saline.
The mark [5] stands for this setting: dose: 200.0 mg/kg/injection, schedule: Q04DX003 (ip), vehicle: saline.
Where [6] appears, read: dose: 400.0 mg/kg/injection, schedule: Q01DX001 (ip), vehicle: saline.
Setting [7] is: dose: 400.0 mg/kg/injection, schedule: Q04DX003 (ip), vehicle: saline.
Where [8] appears, read: dose: 100.0 mg/kg/injection, schedule: Q04DX002 (ip), vehicle: Klucel (hydroxypropylcellulose) (HPC).
Setting [9] is: dose: 200.0 mg/kg/injection, schedule: Q04DX002 (ip), vehicle: Klucel (hydroxypropylcellulose) (HPC).
The mark [10] stands for this setting: dose: 400.0 mg/kg/injection, schedule: Q04DX002 (ip), vehicle: Klucel (hydroxypropylcellulose) (HPC).
Where [11] appears, read: dose: 100.0 mg/kg/injection, schedule: Q01DX001 (ip), vehicle: saline with Tween-80.
Setting [12] is: dose: 200.0 mg/kg/injection, schedule: Q01DX001 (ip), vehicle: saline with Tween-80.
[13] abbreviates: dose: 400.0 mg/kg/injection, schedule: Q01DX001 (ip), vehicle: saline with Tween-80.

Take `O=C(NO)c1ccccc1O`: the T/C is, setting by setting: (dose: 85.0 mg/kg/injection, schedule: Q03HX032 (ip), vehicle: other) 97 % of control; (dose: 100.0 mg/kg/injection, schedule: Q01DX009 (ip), vehicle: Klucel (hydroxypropylcellulose) (HPC)) 104 % of control; (dose: 100.0 mg/kg/injection, schedule: Q04DX002 (ip), vehicle: carboxymethylcellulose (CMC)) 98 % of control and 108 % of control; (dose: 100.0 mg/kg/injection, schedule: Q04DX003 (ip), vehicle: carboxymethylcellulose (CMC)) 101 % of control and 118 % of control; (dose: 130.0 mg/kg/injection, schedule: Q03HX032 (ip), vehicle: other) 102 % of control; (dose: 200.0 mg/kg/injection, schedule: Q01DX009 (ip), vehicle: Klucel (hydroxypropylcellulose) (HPC)) 112 % of control. For the same compound, the T/C reads like this: (dose: 200.0 mg/kg/injection, schedule: Q01DX015 (ip), vehicle: other) 105 % of control; (dose: 200.0 mg/kg/injection, schedule: Q03HX032 (ip), vehicle: other) 105 % of control; (dose: 200.0 mg/kg/injection, schedule: Q04DX002 (ip), vehicle: carboxymethylcellulose (CMC)) 98 % of control and 108 % of control; (dose: 200.0 mg/kg/injection, schedule: Q04DX003 (ip), vehicle: carboxymethylcellulose (CMC)) 99 % of control and 103 % of control; (dose: 266.0 mg/kg/injection, schedule: Q01DX009 (ip), vehicle: saline) 97 % of control; (dose: 300.0 mg/kg/injection, schedule: Q01DX015 (ip), vehicle: other) 93 % of control. Also, the T/C is, setting by setting: (dose: 300.0 mg/kg/injection, schedule: Q03HX032 (ip), vehicle: other) 121 % of control; (dose: 400.0 mg/kg/injection, schedule: Q01DX009 (ip), vehicle: Klucel (hydroxypropylcellulose) (HPC)) 105 % of control; under setting [1], 97 % of control; (dose: 400.0 mg/kg/injection, schedule: Q04DX002 (ip), vehicle: carboxymethylcellulose (CMC)) 96 % of control and 104 % of control; (dose: 400.0 mg/kg/injection, schedule: Q04DX003 (ip), vehicle: carboxymethylcellulose (CMC)) 105 % of control; (dose: 450.0 mg/kg/injection, schedule: Q01DX015 (ip), vehicle: other) 108 % of control. Further, the T/C is, setting by setting: (dose: 450.0 mg/kg/injection, schedule: Q03HX032 (ip), vehicle: other) 208 % of control; (dose: 600.0 mg/kg/injection, schedule: Q01DX009 (ip), vehicle: saline) 104 % of control; (dose: 670.0 mg/kg/injection, schedule: Q01DX015 (ip), vehicle: other) 86 % of control; (dose: 900.0 mg/kg/injection, schedule: Q01DX009 (ip), vehicle: saline) 104 % of control.
Regarding `O=C(Nc1ccc(F)cc1)c1ccc(Cl)cc1Cl`, the T/C under setting [2] is 93 % of control; the T/C under setting [3] was 97 % of control; the T/C under setting [4] was 95 % of control; the T/C under setting [5] is 107 % of control; the T/C under setting [6] is 88 % of control; the T/C under setting [7] is 100 % of control.
With `Cc1ccc(OCCO)cc1C`, the T/C is 120 % of control under setting [8], 92 % of control under setting [9] and 92 % of control under setting [10].
Take `CSc1nc(NC(=O)CCl)cc(NC(=O)CCl)n1`: the T/C is 105 % of control (dose: 12.5 mg/kg/injection, schedule: Q01DX005 (ip), vehicle: saline) and 112 % of control (dose: 25.0 mg/kg/injection, schedule: Q01DX005 (ip), vehicle: saline).
On to `Oc1ccccc1C=NC1CCCCC1.Oc1ccccc1C=NC1CCCCC1.[Co+2]`, for which the T/C runs as follows: (dose: 100.0 mg/kg/injection, schedule: Q04DX003 (ip), vehicle: Klucel (hydroxypropylcellulose) (HPC)) 100 % of control; (dose: 200.0 mg/kg/injection, schedule: Q04DX003 (ip), vehicle: Klucel (hydroxypropylcellulose) (HPC)) 100 % of control.
With `Cc1cc(Cl)ccc1OC(=O)Nc1ccccc1Cl`, the T/C under setting [11] was 97 % of control; the T/C (dose: 100.0 mg/kg/injection, schedule: Q01DX009 (ip), vehicle: saline with Tween-80) is 102 % of control and 106 % of control; the T/C under setting [8] is 103 % of control; the T/C (dose: 100.0 mg/kg/injection, schedule: Q04DX002 (ip), vehicle: saline with Tween-80) is 105 % of control and 89 % of control; the T/C (dose: 100.0 mg/kg/injection, schedule: Q04DX003 (ip), vehicle: saline with Tween-80) is 96 % of control; the T/C under setting [12] was 94 % of control. The T/C runs as follows: (dose: 200.0 mg/kg/injection, schedule: Q01DX009 (ip), vehicle: saline with Tween-80) 100 % of control and 88 % of control; under setting [9], 124 % of control; (dose: 200.0 mg/kg/injection, schedule: Q04DX002 (ip), vehicle: saline with Tween-80) 92 % of control and 100 % of control; (dose: 200.0 mg/kg/injection, schedule: Q04DX003 (ip), vehicle: saline with Tween-80) 100 % of control; under setting [13], 99 % of control; (dose: 400.0 mg/kg/injection, schedule: Q01DX009 (ip), vehicle: saline with Tween-80) 102 % of control and 106 % of control. The T/C is 106 % of control under setting [10]; 92 % of control and 105 % of control (dose: 400.0 mg/kg/injection, schedule: Q04DX002 (ip), vehicle: saline with Tween-80); 96 % of control (dose: 400.0 mg/kg/injection, schedule: Q04DX003 (ip), vehicle: saline with Tween-80).
For the compound `CCCCCSB(SCCCCC)c1ccccc1`, the T/C is 89 % of control under setting [2], 89 % of control under setting [4] and 92 % of control under setting [6].
`CNc1nc(N)nc2c1nc(Cl)n2C1OC(CO)C(O)C1O` (stereo unspecified): the T/C was 100 % of control under setting [2], 92 % of control under setting [4] and 96 % of control under setting [6].
For the compound `O=[N+]([O-])c1ccc(N/N=C/CC(O)CO)c([N+](=O)[O-])c1` (stereo unspecified), the T/C is 89 % of control (dose: 100.0 mg/kg/injection, schedule: Q01DX009 (ip), vehicle: saline); 90 % of control under setting [3]; 86 % of control (dose: 200.0 mg/kg/injection, schedule: Q01DX009 (ip), vehicle: saline); 90 % of control under setting [5]; 94 % of control under setting [1]; 91 % of control under setting [7].
For `Clc1ccc(/C=C\c2ccncc2)cc1`, the T/C reads like this: (dose: 50.0 mg/kg/injection, schedule: Q01DX001 (ip), vehicle: carboxymethylcellulose (CMC)) 102 % of control; (dose: 100.0 mg/kg/injection, schedule: Q01DX001 (ip), vehicle: carboxymethylcellulose (CMC)) 98 % of control; (dose: 200.0 mg/kg/injection, schedule: Q01DX001 (ip), vehicle: carboxymethylcellulose (CMC)) 119 % of control; (dose: 400.0 mg/kg/injection, schedule: Q01DX001 (ip), vehicle: carboxymethylcellulose (CMC)) 98 % of control.
In the case of `CCOC(=O)c1[nH]c(C)c(C(=O)OCC)c1-c1ccccc1`, the T/C runs as follows: under setting [11], 98 % of control; under setting [12], 106 % of control; under setting [13], 100 % of control.
`O=C(O)C1C2/C=C/CCCCC21` (stereo unspecified): the T/C was 104 % of control (dose: 100.0 mg/kg/injection, schedule: Q04DX002 (ip), vehicle: other); 86 % of control (dose: 200.0 mg/kg/injection, schedule: Q04DX002 (ip), vehicle: other); 93 % of control (dose: 400.0 mg/kg/injection, schedule: Q04DX002 (ip), vehicle: other).
As for `CN(C)c1ccc(/C=C/c2cc[n+](C)cc2)cc1`, the T/C runs as follows: (dose: 8.0 mg/kg/injection, schedule: Q04DX003 (ip), vehicle: saline with Tween-80) 100 % of control; (dose: 16.0 mg/kg/injection, schedule: Q04DX003 (ip), vehicle: saline with Tween-80) 95 % of control.
Regarding `CCOC(=O)CC(O)(COC)c1ccccc1` (stereo unspecified), the T/C reads like this: (dose: 50.0 mg/kg/injection, schedule: Q01DX001 (ip), vehicle: saline) 114 % of control; under setting [2], 100 % of control; under setting [4], 109 % of control; under setting [6], 97 % of control.
In the case of `COc1ccc(CCN)cc1`, the T/C reads like this: (dose: 25.0 mg/kg/injection, schedule: Q04DX002 (ip), vehicle: saline) 101 % of control; (dose: 50.0 mg/kg/injection, schedule: Q04DX002 (ip), vehicle: saline) 97 % of control; (dose: 100.0 mg/kg/injection, schedule: Q04DX002 (ip), vehicle: saline) 97 % of control and 109 % of control.
